In patent US12472185B2, “Methods for killing antibiotic tolerant bacteria” (THE PENN STATE RESEARCH FOUNDATION, priority 2020, dated 2025):

Tests used:
[1] = system: E. coli BW25113 exponential cells; assay: Survival of exponentially-growing cells (drop assay); format: cell-based, Escherichia coli
Description: FIG. 2. NPIMA eradicates Escherichia coli, Pseudomonas aeruginosa, and Staphylococcus aureus exponential cells. Survival after 6 hr for (a) E. coli BW25113 with NPIMA and 5-iodoindole at 100 μM, (b) P. aeruginosa PA14 with NPIMA and 5-iodoindole at 100 μM, and (c) S. aureus with NPIMA and 5-iodoindole at 200 μM. Asterisk indicates no viable cells detected. NPIMA, 5-nitro-3-phenyl-1H-indol-2-yl-methylamine hydrochloride.
FIG. 8. NPIMA structure function relationships. Exponential cells of Escherichia coli BW25113 were treated with (a) 2-(aminomethyl) indole, and (b) 2-methyl-5-nitro-3-phenyl-1H-indole for 6 hr. NPIMA, 5-nitro-3-phenyl-1Hindol-2-yl-methylamine hydrochloride.
(§1) For bacterial viability, cells were washed twice with 0.85% NaCl, resuspended in 1×PBS, and cell counts were determined via the drop assay (Donegan, Matyac, Seidler, & Porteous, 1991). For human cell viability, pre-cultured human cancer HT-29 cells were dispensed in 98 μl in 96-well plates with approximately 5,000 cells/well. NPIMA was added (2 μl) to produce concentrations of 5, 10, 100, and 200 μM. For controls, Triton X-100 (positive control) and DMSO (negative solvent control), were used, and the medium was used for background. Plates were incubated in a humidified incubator (37° C., 5% CO2) for 24 hr. Cell viability was determined via a cell counting kit (CCK-8 Kit, ab228554; Abcam), and cytotoxicity was determined via the lactate dehydrogenase (LDH) assay (LDH Assay Kit, MK401; Takara).

[2] = system: E coli; assay: Resistance test by daily propagation at 0.25 MIC; format: cell-based, Escherichia coli; conditions: 7 days at 0.25 MIC (25 μM), then 1 MIC (100 μM) overnight
Description: After 7 days, the sequentially-propagated E. coli cells were contacted with LB with 1 MIC of NPIMA (100 μM) and incubated overnight to allow any putative resistant cells to grow and increase the turbidity.

[3] = system: human cancer HT-29 cells; assay: Viability (CCK-8) and cytotoxicity (LDH) assays; format: cell-based; conditions: 24 hr
Description: FIG. 11. Cytotoxicity of NPIMA with HT-29 cells. (A) Cell viability was measured via a CCK-8 assay. (B) Cytotoxicity was measured with various concentrations of NPIMA […] for 24 h. Cell viability was measured at 450 nm, and cell toxicity was measured at 492 nm and a reference wavelength ([…]) was used.
as §1

[4] = system: E. coli persister cells; assay: ChemBridge screen for persister cell killing; format: cell-based, Escherichia coli; conditions: 100 μM, 24 hr
Description: FIG. 1. […] Escherichia coli persister cells were treated for 24 hr at 100 μM with: • 1: N-(3,4-dichlorophenyl)-N′-(3-fluorophenyl) thiourea; • 2: 2-({2-[(4-bromophenyl)amino]-4-quinazolinyl}amino)ethanol hydrochloride; • 3: 2-[(6-phenyl-2,3,4,9-tetrahydro-1H-carbazol-1-yl)amino] ethanol; • 4: 1-(3,6-dichloro-9H-carbazol-9-yl)-3-(2-methyl-1H-imidazol-1-yl)-2-propanol; • 5: N-[2-(4-fluorophenyl)ethyl]-N′-(4-nitrophenyl) thiourea; • 6: N-(4-chlorobenzyl)-N′-4-pyridinylthiourea; • 7: N′-(3,5-dichloro-2-hydroxybenzylidene)-2-oxo-4-phenyl-3-pyrrolidinecarbohydrazide; and • 8: [(5-nitro-3-phenyl-1H-indol-2-yl)methyl]amine hydrochloride (NPIMA, structure shown in inset).
To identify compounds that kill E. coli persister cells, 10,000 compounds of the DIVERset Library from ChemBridge (San Diego, CA) were tested by adding 4 μl of each (in DMSO, final concentration 100 μM) to 186 μl of LB in 96-well plates along with 10 μl of persister cells; the persister cells were added after the ChemBridge chemical since LB wakes persister cells (Kim, Yamasaki, et al., 2018). For the negative control, pure DMSO (final concentration 2 vol %) was used. The degree of inhibition was determined by the change in turbidity at 600 nm after 24 hr. The best 26 compounds were re-tested with the same conditions.
To screen directly for killing persister cells, a high-throughput approach using 96-well microtiter plates was devised that consisted of (a) washing persister cells formed from exponentially-growing cells using rifampicin pretreatment followed by ampicillin treatment, (b) adding 10 μl of the persister cells to 190 μl of LB containing one each of the 10,000 compounds of the DiverSet library dissolved in dimethyl sulfoxide (100 μM final concentration), and (c) monitoring for growth via change in turbidity for 24 hr. With this approach, we allowed for up to a 140-fold change in turbidity (0.005 could be increased to 0.69).

[5] = system: P. aeruginosa PA14 persister cells; assay: Survival of persister cells (CCCP/ciprofloxacin generated); format: cell-based, Pseudomonas aeruginosa; conditions: 100 μM
Description: FIG. 3. NPIMA kills Escherichia coli, Pseudomonas aeruginosa, persister cells. Survival of (a) E. coli BW25113 and (b) P. aeruginosa PA14 after treatment with NPIMA (100 μM), 5-iodoindole (5-II, 100 μM), and DMSO for 6 hr. Asterisk indicates no viable cells detected. DMSO, dimethyl sulfoxide; NPIMA, 5-nitro-3-phenyl-1H-indol-2-yl-methylamine hydrochloride.
E. coli persister cells were prepared following our previous method (Kim, Yamasaki, et al., 2018; Kwan, Valenta, Benedik, & Wood, 2013). Exponentially-growing cells (turbidity of 0.8 at 600 nm) were treated with rifampicin (100 μg/ml for 30 min) to stop transcription, washed, and any remaining nonpersister cells were lysed by ampicillin in LB (100 μg/ml for 3 hr). Cells were harvested by centrifugation (17,000 g for 1 min) and washed with 1× phosphate-buffered saline buffer (PBS, 8 g NaCl, 0.2 g KCl, 1.15 g Na2HPO4, and 0.2 g KH2PO4 per 1,000 ml) twice to remove all possible carbon sources, then resuspended with 1×PBS. […]
For bacterial viability, cells were washed twice with 0.85% NaCl, resuspended in 1×PBS, and cell counts were determined via the drop assay (Donegan, Matyac, Seidler, & Porteous, 1991). […] Cell viability was determined via a cell counting kit (CCK-8 Kit, ab228554; Abcam), and cytotoxicity was determined via the lactate dehydrogenase (LDH) assay (LDH Assay Kit, MK401; Takara).

**Q.** With `Cl.NCc1[nH]c2ccc([N+](=O)[O-])cc2c1-c1ccccc1` [NPIMA, [(5-nitro-3-phenyl-1H-indol-2-yl)methyl]amine hydrochloride] as the compound, how does the “time to eradicate exponentially-growing E. coli” value ([1]; 100 μM (1 MIC)) read?
**A.** Its value is at most 3 h.

**Q.** What about the “killing of exponential E. coli cells” value ([1]; 100 μM, 6 hr) of the same compound?
**A.** Its value is “eradicated”.

**Q.** What about the resistance after propagation [2] of the same compound?
**A.** Its resistance after propagation is “all of the E. coli cells were killed”.

**Q.** What about the “toxicity (LDH and CCK-8)” value ([3]; 5 μM) of the same compound?
**A.** The value was “not toxic”.

**Q.** What about the “toxicity (LDH and CCK-8)” value ([3]; 10 μM) of the same compound?
**A.** Its value is “not toxic”.

**Q.** And the “concentrations showing toxicity in both tests” value [3]?
**A.** Its value is at least 50 µM.

**Q.** And the “change of turbidity during first and second screen” value [4]?
**A.** The value was “reduced the turbidity”.

**Q.** And the “persister killing, second screen (FIG. 1)” value ([4]; hydrochloride)?
**A.** Its value is “substantially more effective than the other compounds”.

**Q.** What about the “persister killing, second screen (FIG. 1)” value ([4]; listed as 8, hydrochloride) of the same compound?
**A.** The value was “Most effective”.

**Q.** And the “time to eradicate P. aeruginosa persister cells” value [5]?
**A.** The value was 3 h.
